Among the data in patent publication US8575156B2, “Cyclic inhibitors of 11β-hydroxysteroid dehydrogenase 1” (Vitae Pharmaceuticals, Inc., priority 2007, dated 2013) are IC50 and inhibition values, retold here.

The target of the test is 11β-HSD1 (Homo sapiens, UniProt P28845). In words: biochemical. To be noted: for IC50: IC50 Range, Biological Test Example 1, microsomes from CHO cells overexpressing human 11β-HSD1; for inhibition at 0.1 µM: read-out: Average % inhibition at 100 nM, Biological Test Example 1, 100 nM compound.
Sequence of 11β-HSD1 (P28845 whole entry): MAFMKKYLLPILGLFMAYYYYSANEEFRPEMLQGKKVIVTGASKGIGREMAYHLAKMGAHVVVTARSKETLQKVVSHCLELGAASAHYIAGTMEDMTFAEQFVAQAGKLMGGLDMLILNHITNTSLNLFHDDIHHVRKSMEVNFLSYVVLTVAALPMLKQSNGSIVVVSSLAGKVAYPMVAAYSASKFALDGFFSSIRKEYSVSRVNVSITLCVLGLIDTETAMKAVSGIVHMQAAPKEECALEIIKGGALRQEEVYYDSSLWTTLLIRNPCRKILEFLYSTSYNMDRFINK
[1] abbreviates: read-out: Average % inhibition at 111.1 nM, Biological Test Example 1, 111.1 nM compound.

Like-named read-outs stand apart in the source and are kept apart here.

One may read the IC50 as the midpoint of a concentration-inhibition curve. A word on the inhibition: it is the drop in the measured response relative to a control, in per cent. On to `O=C1OC(CCO)(c2ccccc2)CCN1c1cccc(Br)c1` (centres unmarked) [EXAMPLE 74, 3-(3-bromophenyl)-6-(2-hydroxyethyl)-6-phenyl-1,3-oxazinan-2-one], for which the IC50 was under 100 nM. For the same compound, under setting [1], the inhibition at 0.1111 µM was found to be 70%.
For `NCCC1(c2ccccc2)CCN(c2cccc(-c3ccc(F)cc3F)c2)C(=O)O1` (centres unmarked) [EXAMPLE 75, 6-(2-aminoethyl)-3-(2′,4′-difluorobiphenyl-3-yl)-6-phenyl-1,3-oxazinan-2-one], the IC50 was under 100 nM. Moreover, the inhibition at 0.1111 µM under setting [1] stood at 57.8%.
In the case of `NC(=O)CC1(c2ccccc2)CCN(c2cccc(-c3ccc(F)cc3F)c2)C(=O)O1` (centres unmarked) [EXAMPLE 76, 2-(3-(2′,4′-difluorobiphenyl-3-yl)-2-oxo-6-phenyl-1,3-oxazinan-6-yl)acetamide], the IC50 is under 100 nM and the inhibition at 0.1 µM was determined as 81%.
With `O=C1OC(CC(O)CO)(c2ccccc2)CCN1c1cccc(-c2ccc(F)cc2F)c1` (centres unmarked) [EXAMPLE 77, 3-(2′,4′-difluorobiphenyl-3-yl)-6-(2,3-dihydroxypropyl)-6-phenyl-1,3-oxazinan-2-one], the IC50 was under 100 nM and the inhibition at 0.1 µM was found to be 88.7%. Also, the inhibition at 0.1111 µM under setting [1] is 89.2%.
In turn, `CC1(c2cccc(Cl)c2)CCN(c2cccc(-c3ccccc3)c2)C(=O)O1` (centres unmarked) [EXAMPLE 79, 3-(biphenyl-3-yl)-6-(3-chlorophenyl)-6-methyl-1,3-oxazinan-2-one] yielded an IC50 of under 100 nM. Under setting [1], the inhibition at 0.1111 µM turned out to be 75.3%.
As for `CC1(c2ccccn2)CCN(c2cccc(-c3ccc(F)cc3F)c2)C(=O)O1` (centres unmarked) [EXAMPLE 80, 3-(2′,4′-difluorobiphenyl-3-yl)-6-methyl-6-(pyridin-2-yl)-1,3-oxazinan-2-one], the IC50 was under 100 nM. In addition, the inhibition at 0.1111 µM (read-out: Average % inhibition at 111.1 nM) was found to be 77.8%.
On to `CC1(c2ccccc2)CCN(c2cccc(Oc3ccccc3)c2)C(=O)O1` (centres unmarked) [EXAMPLE 81, 6-methyl-3-(3-phenoxyphenyl)-6-phenyl-1,3-oxazinan-2-one], for which the IC50 is under 100 nM. Under setting [1], the inhibition at 0.1111 µM is 72.2%.
The compound `COc1cccc([C@H](C)N2CCC(C)(c3ccccc3)OC2=O)c1` (stereo partly drawn) [EXAMPLE 84, 3-((S)-1-(3-methoxyphenyl)ethyl)-6-methyl-6-phenyl-1,3-oxazinan-2-one] displayed an IC50 of under 100 nM. The inhibition at 0.1111 µM under setting [1] worked out at 94.6%.
Compound `COc1ccc([C@H](C)N2CCC(C)(c3ccccc3)OC2=O)cc1` (stereo partly drawn) [EXAMPLE 85, 3-((S)-1-(4-methoxyphenyl)ethyl)-6-methyl-6-phenyl-1,3-oxazinan-2-one] returned an IC50 of under 100 nM. The inhibition at 0.1111 µM under setting [1] worked out at 102%.
In turn, `Cc1ccccc1C1(C)CCN([C@@H](C)c2ccccc2)C(=O)O1` (stereo partly drawn) [EXAMPLE 86, 6-methyl-3-((S)-1-phenylethyl)-6-o-tolyl-1,3-oxazinan-2-one] returned an IC50 of under 100 nM. Besides, the inhibition at 0.1111 µM under setting [1] came out at 85.7%.
With `Cc1cccc(C2(C)CCN([C@@H](C)c3ccccc3)C(=O)O2)c1` (stereo partly drawn) [EXAMPLE 87, 6-methyl-3-((S)-1-phenylethyl)-6-m-tolyl-1,3-oxazinan-2-one], the IC50 is under 100 nM.
As for `Cc1ccc(C2(C)CCN([C@@H](C)c3ccccc3)C(=O)O2)cc1` (stereo partly drawn) [EXAMPLE 88, 6-methyl-3-((S)-1-phenylethyl)-6-p-tolyl-1,3-oxazinan-2-one], the IC50 was under 100 nM. Under setting [1], the inhibition at 0.1111 µM came out at 97.1%.
For `C[C@@H](c1cccc(O)c1)N1CCC(C)(c2ccccc2)OC1=O` (stereo partly drawn) [EXAMPLE 89, 3-((S)-1-(3-hydroxyphenyl)ethyl)-6-methyl-6-phenyl-1,3-oxazinan-2-one], in that order: under 100 nM and 71.4%.
For `CSc1ccc(C2(C)CCN([C@@H](C)c3ccccc3)C(=O)O2)cc1` (stereo partly drawn) [EXAMPLE 90, 6-methyl-6-(4-(methylthio)phenyl)-3-((S)-1-phenylethyl)-1,3-oxazinan-2-one], in that order: under 100 nM and 83.1%.
Consider `CCOC(=O)COc1cccc([C@H](C)N2CCC(C)(c3ccccc3)OC2=O)c1` (stereo partly drawn) [EXAMPLE 91, ethyl 2-(3-((1S)-1-(6-methyl-2-oxo-6-phenyl-1,3-oxazinan-3-yl)ethyl)phenoxy)acetate], for which the half-inhibitory concentration (IC50) was in the range of 100 to 1000 nM. The inhibition at 0.1111 µM under setting [1] was found to be 39.8%.
The compound `C[C@@H](c1ccccc1)N1CCC(C)(c2ccc(CN3CCOCC3)cc2)OC1=O` (stereo partly drawn) [EXAMPLE 92, 6-methyl-6-(4-(morpholinomethyl)phenyl)-3-((S)-1-phenylethyl)-1,3-oxazinan-2-one] gave an IC50 of 100 to 1000 nM. For the same compound, under setting [1], the inhibition at 0.1111 µM was determined as 35%.
`C=CCC1(c2ccc(F)cc2)CCN([C@@H](C)c2ccccc2)C(=O)O1` (stereo partly drawn) [EXAMPLE 95, 6-allyl-6-(4-fluorophenyl)-3-((S)-1-phenylethyl)-1,3-oxazinan-2-one] showed an IC50 of under 100 nM. Further, the inhibition at 0.1111 µM under setting [1] was 97.3%.
For `O=C1OC(CCO)(c2ccccc2)CCN1c1ccc(F)c(-c2ccc(F)cc2)c1` (centres unmarked) [EXAMPLE 96, 3-(4′,6-difluorobiphenyl-3-yl)-6-(2-hydroxyethyl)-6-phenyl-1,3-oxazinan-2-one], in that order: under 100 nM and 91.9%.
The compound `CC(=O)NCCC1(c2ccccc2)CCN(c2cccc(-c3ccc(F)cc3F)c2)C(=O)O1` (centres unmarked) [EXAMPLE 98, N-(2-(3-(2′,4′-difluorobiphenyl-3-yl)-2-oxo-6-phenyl-1,3-oxazinan-6-yl)ethyl)acetamide] registered an IC50 of under 100 nM. The inhibition at 0.1111 µM under setting [1] was 73.4%.
On to `CS(=O)(=O)NCCC1(c2ccccc2)CCN(c2cccc(-c3ccc(F)cc3F)c2)C(=O)O1` (centres unmarked) [EXAMPLE 99, N-(2-(3-(2′,4′-difluorobiphenyl-3-yl)-2-oxo-6-phenyl-1,3-oxazinan-6-yl)ethyl)methanesulfonamide], for which the IC50 is under 100 nM. Also, the inhibition at 0.1111 µM under setting [1] stood at 75.3%.
For `O=C1OC(CCO)(c2ccc(F)cc2)CCN1c1ccc(F)c(-c2ccc(F)cc2Cl)c1` (centres unmarked) [EXAMPLE 100, 3-(2′-chloro-4′,6-difluorobiphenyl-3-yl)-6-(4-fluorophenyl)-6-(2-hydroxyethyl)-1,3-oxazinan-2-one], in that order: under 100 nM and 93.7%.
With `O=C1OC(CCO)(c2ccccc2)CCN1c1ccc(F)c(-c2ccc(F)cc2Cl)c1` (centres unmarked) [EXAMPLE 101, 3-(2′-chloro-4′,6-difluorobiphenyl-3-yl)-6-(2-hydroxyethyl)-6-phenyl-1,3-oxazinan-2-one], the IC50 is under 100 nM. Under setting [1], the inhibition at 0.1111 µM stood at 84.4%.
The matching figures for `O=C1OC(CCO)(c2ccc(F)cc2)CCN1c1cccc(-c2ccc(F)cc2)n1` (centres unmarked) [EXAMPLE 103, 6-(4-fluorophenyl)-3-(6-(4-fluorophenyl)pyridin-2-yl)-6-(2-hydroxyethyl)-1,3-oxazinan-2-one]: under 100 nM and 86.9%.
The compound `O=C1OC(CCO)(c2ccccc2F)CCN1c1cccc(-c2ccc(F)cc2)n1` (centres unmarked) [EXAMPLE 104, 6-(2-fluorophenyl)-3-(6-(4-fluorophenyl)pyridin-2-yl)-6-(2-hydroxyethyl)-1,3-oxazinan-2-one] came in with an IC50 of under 100 nM. In addition, the inhibition at 0.1111 µM under setting [1] is 85.7%.
Take `O=C1OC(CCO)(c2ccc(F)cc2)CCN1c1ccc(F)c(-c2ccc(F)cc2F)c1` (centres unmarked) [EXAMPLE 105, 6-(4-fluorophenyl)-6-(2-hydroxyethyl)-3-(2′,4′,6-trifluorobiphenyl-3-yl)-1,3-oxazinan-2-one]: the IC50 is under 100 nM. In addition, the inhibition at 0.1111 µM under setting [1] was 87.4%.
In turn, `O=C1OC(CCO)(c2ccccc2F)CCN1c1ccc(F)c(-c2ccc(F)cc2F)c1` (centres unmarked) [EXAMPLE 106, 6-(2-fluorophenyl)-6-(2-hydroxyethyl)-3-(2′,4′,6-trifluorobiphenyl-3-yl)-1,3-oxazinan-2-one] had an IC50 of under 100 nM. The inhibition at 0.1111 µM under setting [1] was found to be 88.7%.
Take `O=C1OC(CCO)(c2ccccc2)CCN1c1cccc(-c2ccc(F)cc2F)n1` (centres unmarked) [EXAMPLE 107, 3-(6-(2,4-difluorophenyl)pyridin-2-yl)-6-(2-hydroxyethyl)-6-phenyl-1,3-oxazinan-2-one]: the IC50 is under 100 nM and the inhibition at 0.1 µM was determined as 90.9%. Moreover, under setting [1], the inhibition at 0.1111 µM amounted to 97%.
Take `O=C1OC(CCO)(c2ccc(F)cc2)CCN1c1cccc(-c2ccc(F)cc2F)n1` (centres unmarked) [EXAMPLE 108, 3-(6-(2,4-difluorophenyl)pyridin-2-yl)-6-(4-fluorophenyl)-6-(2-hydroxyethyl)-1,3-oxazinan-2-one]: the IC50 was under 100 nM. Moreover, the inhibition at 0.1111 µM under setting [1] came out at 55.4%.
The matching figures for `O=C1OC(CCO)(c2ccccc2)CCN1c1cccc(-c2ccc(F)cc2Cl)n1` (centres unmarked) [EXAMPLE 116, 3-(6-(2-chloro-4-fluorophenyl)pyridin-2-yl)-6-(2-hydroxyethyl)-6-phenyl-1,3-oxazinan-2-one]: under 100 nM and 97.6%.
In turn, `CC(C)(O)CC1(c2ccccc2)CCN(c2cccc(-c3ccc(F)cc3F)c2)C(=O)O1` (centres unmarked) [EXAMPLE 117, 3-(2′,4′-difluorobiphenyl-3-yl)-6-(2-hydroxy-2-methylpropyl)-6-phenyl-1,3-oxazinan-2-one] yielded an IC50 of under 100 nM. Also, the inhibition at 0.1111 µM under setting [1] came out at 82.8%.
For the compound `O=C1OC(CCO)(c2ccc(F)cc2)CCN1c1cccc(-c2ccc(F)cc2Cl)n1` (centres unmarked) [EXAMPLE 118, 3-(6-(2-chloro-4-fluorophenyl)pyridin-2-yl)-6-(4-fluorophenyl)-6-(2-hydroxyethyl)-1,3-oxazinan-2-one], the IC50 was under 100 nM. Also, the inhibition at 0.1111 µM under setting [1] was 96.8%.
Regarding `CC1(c2ccccc2)CCN(c2nc(-c3ccccc3)cs2)C(=O)O1` (centres unmarked) [EXAMPLE 121, 6-methyl-6-phenyl-3-(4-phenylthiazol-2-yl)-1,3-oxazinan-2-one], the IC50 was 100 to 1000 nM. Also, the inhibition at 0.1111 µM under setting [1] amounted to 34.2%.
Turning to `C[C@@H](C1CCCCC1)N1CC[C@](CCCO)(c2ccc(F)cc2)OC1=O` [EXAMPLE 122, (R)-3-((S)-1-cyclohexylethyl)-6-(4-fluorophenyl)-6-(3-hydroxypropyl)-1,3-oxazinan-2-one], the IC50 is under 100 nM and the inhibition at 0.1 µM worked out at 94.1%. The inhibition at 0.1111 µM under setting [1] turned out to be 95.6%.
